The assay has as its target human PAD4 (hPAD4) (Homo sapiens, UniProt Q9UM07). Kind of assay: RFMS Human PAD4 Functional Assay. It is filed as biochemical. As to conditions: 5 nM hPAD4, 250 μM BAEE. As for the experimental part:
RFMS Human PAD4 Functional Assay:
Compounds were solubilized in 100% DMSO to achieve a 10 mM compound concentration. Compound stock solutions were stored at RT. A series of dilutions were prepared in DMSO and mixed 8 times with 20 μL mixing volume. Final top concentration of compound in the assay is 50 μM.
0.13 μL of compound solution was added to 13 μL of 10 nM PAD4 in assay buffer. After 30 min 13 μl of 500 μM of BAEE was added in 25 mM hepes, pH 7.5, 5 mM NaCl, 1 mM DTT, 0.2 mg/ml BSA, 0.01% CHAPS, 50 μM Calcium, 5 μM TPEN was added and the reaction incubated for 90 min at 37° C. The enzymatic reaction was quenched by addition of 15 μl of 6.1N TCA, 100% Final Concentration is 20%, 35 μl of 8.5 mM phenyl glyoxal (final concentration 4 mM) is then added and the reaction is incubated for 30 min at 37° C.
After 30 minutes the plates are spun down to remove all precipitate. The enzyme reaction was quenched with an equal volume of methanol containing internal standard (modified citrulline). Samples were loaded onto the Rapid Fire RF300 system (Agilent) wherein they were first sipped for 1000 ms and then directly loaded to a C18 separations cartridge using a mixture of acetonitrile containing 0.01% formic acid for 3000 ms desalting. The flow rate of the mobile phase was 1.5 ml/min.
The dwell time for each transition was set at 200 ms, and the ESI voltage was used at 5500 with a source temperature of 400° C. Extracted ion peaks for each transition were integrated using the Rapid Fire Integrator software. Peak area of analyte was normalized with internal standard.).

[1] abbreviates: hPAD4 RFMS IC50, human PAD4, rapid-fire mass spectrum (RFMS) assay.

These results are taken from patent publication US20220402950A1, “SUBSTITUTED BENZIMIDAZOLES AS PAD4 INHIBITORS” (BRISTOL-MYERS SQUIBB COMPANY, priority 2018, published 2022).

Read-outs that look alike come from different tables or passages of the source.

Chain of human PAD4 (hPAD4) (Q9UM07 whole entry): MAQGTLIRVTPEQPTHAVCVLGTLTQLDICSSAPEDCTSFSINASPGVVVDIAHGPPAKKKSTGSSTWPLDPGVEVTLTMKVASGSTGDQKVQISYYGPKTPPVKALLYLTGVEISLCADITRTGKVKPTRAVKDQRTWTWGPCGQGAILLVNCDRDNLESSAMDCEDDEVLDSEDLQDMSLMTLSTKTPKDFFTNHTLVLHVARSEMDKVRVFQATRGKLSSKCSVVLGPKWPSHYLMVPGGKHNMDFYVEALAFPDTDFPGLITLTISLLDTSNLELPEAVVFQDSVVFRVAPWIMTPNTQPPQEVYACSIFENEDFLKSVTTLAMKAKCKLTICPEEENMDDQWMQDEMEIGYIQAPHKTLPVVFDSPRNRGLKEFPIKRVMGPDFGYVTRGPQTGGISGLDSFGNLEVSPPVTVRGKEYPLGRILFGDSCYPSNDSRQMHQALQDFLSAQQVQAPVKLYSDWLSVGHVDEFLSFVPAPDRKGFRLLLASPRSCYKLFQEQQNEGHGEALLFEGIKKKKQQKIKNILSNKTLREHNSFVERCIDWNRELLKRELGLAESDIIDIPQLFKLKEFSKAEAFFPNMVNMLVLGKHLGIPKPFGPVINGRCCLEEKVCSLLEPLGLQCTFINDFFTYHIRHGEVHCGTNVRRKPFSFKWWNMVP

With `COc1cc(C(=O)N2C[C@H]3CC[C@@H]2[C@@H]3N)cc2nc(-c3cc4cccc(Nc5cn(C)nc5C)c4n3CC3CC3(F)F)n(C)c12` (stereo partly drawn) [Example 178, ((1R,4R,7R)-7-amino-2-azabicyclo[2.2.1]heptan-2-yl)(2-(1-((2,2-difluorocyclopropyl)meth-yl)-7-((1,3-dimethyl-1H-pyrazol-4-yl)amino)-1H-indol-2-yl)-7-methoxy-1-methyl-1H-benzo[d]imidazol-5-yl)methanone], the half-inhibitory concentration (IC50) (commonly the point on the concentration scale where inhibition reaches its midpoint) under setting [1] was determined as 56 nM.

On to `COc1cc(C(=O)N2C[C@H]3CC[C@@H]2[C@@H]3N)cc2nc(-c3cc4cccc(Nc5c(C)nn(C)c5C)c4n3CC3CC3(Cl)Cl)n(C)c12` (stereo partly drawn) [Example 176, ((1R,4R,7R)-7-amino-2-azabicyclo[2.2.1]heptan-2-yl)(2-(1-((2,2-dichlorocyclopropyl)meth-yl)-7-((1,3,5-trimethyl-1H-pyrazol-4-yl)amino)-1H-indol-2-yl)-7-methoxy-1-methyl-1H-benzo[d]imidazol-5-yl)methanone], for which, under setting [1], the midpoint of inhibition, the IC50, lay at 76 nM. On the same count and under the same terms, under `COc1cc(C(=O)N2C[C@H]3CC[C@@H]2[C@@H]3N)cc2nc(-c3cc4cccc(C5CCN(C(=O)Nc6ccccc6F)CC5)c4n3CC3CC3)n(C)c12` [Example 243, 4-(2-(5-((1R,4R,7R)-7-amino-2-azabicyclo[2.2.1]heptane-2-carbonyl)-7-methoxy-1-methyl-1H-benzo[d]imidazol-2-yl)-1-(cyclopropylmethyl)-1H-indol-7-yl)-N-(2-fluorophenyl)piperidine-1-carboxamide] stands 8 nM; under `COc1cc(C(=O)N2CC3CCC2[C@@H]3N)cc2nc(-c3cc4cccc(Nc5ccnc(C(N)=O)n5)c4n3CC3CC3)n(C)c12` (stereo partly drawn) [Example 160, 4-((2-(5-((7R)-7-amino-2-azabicyclo[2.2.1]heptane-2-carbonyl)-7-methoxy-1-methyl-1H-benzo[d]imidazol-2-yl)-1-(cyclopropylmethyl)-1H-indol-7-yl)amino)pyrimidine-2-carboxamide], 110 nM; under `COc1cc(C(=O)N2C[C@H]3CC[C@@H]2[C@@H]3N)cc2nc(-c3cc4cccc(-c5ccc6c(c5)CCC(=O)N6)c4n3CC3CC3)n(C)c12` [Example 99, 6-(2-{5-[(1R,4R,7R)-7-amino-2-azabicyclo[2.2.1]heptane-2-carbonyl]-7-methoxy-1-methyl-1H-1,3-benzodiazol-2-yl}-1-(cyclopropylmethyl)-1H-indol-7-yl)-1,2,3,4-tetrahydroquinolin-2-one], 38 nM. Same read-out and setting: under `COc1cc(C(=O)N2C[C@H]3CC[C@@H]2[C@@H]3N)cc2nc(-c3cc4cccc(C5CC(N)C5)c4n3CC3CC3)n(C)c12` (stereo partly drawn) [Example 9, (1R,4R,7R)-2-{2-[7-(3-aminocyclobutyl)-1-(cyclopropylmethyl)-1H-indol-2-yl]-7-methoxy-1-methyl-1H-1,3-benzodiazole-5-carbonyl}-2-azabicyclo[2.2.1]heptan-7-amine] stands 40 nM. With `CNC(=O)C1CC(c2cccc3cc(-c4nc5cc(C(=O)N6C[C@H]7CC[C@@H]6[C@@H]7N)cc(OC)c5n4C)n(CC4CC4)c23)C1` (single isomer, unassigned) [Example 44], where the note is “human PAD4, rapid-fire mass spectrum (RFMS) assay, read-out: hPAD4 RFMS IC50”, the IC50 was found to be 48 nM.

With `COc1cc(C(=O)N2C[C@@H]3CC[C@@H]2C3N)cc2nc(-c3cc4cccc(-c5ccccc5C#N)c4n3CC3CC3)n(C)c12` (stereo partly drawn) [Example 143, 2-(2-(5-((1R,4S)-7-amino-2-azabicyclo[2.2.1]heptane-2-carbonyl)-7-methoxy-1-methyl-1H-benzo[d]imidazol-2-yl)-1-(cyclopropylmethyl)-1H-indol-7-yl)benzonitrile], the IC50 under setting [1] was 181 nM.

Under setting [1], `COc1cc(C(=O)N2C[C@H](N)C[C@@H](F)C2)cc2nc(-c3cc4cccc(C5CC(C(N)=O)C5)c4n3CC3CC3)n(C)c12` (single isomer, unassigned) [Example 113] returned an IC50 of 52 nM.

Take `COc1cc(C(=O)N2C[C@H]3CC[C@@H]2[C@@H]3N)cc2nc(-c3cc4cccc(C5CN(C(=O)CCC(=O)O)C5)c4n3CC3CC3)n(C)c12` [Example 68, 4-[3-(2-{5-[(1R,4R,7R)-7-amino-2-azabicyclo[2.2.1]heptane-2-carbonyl]-7-methoxy-1-methyl-1H-1,3-benzodiazol-2-yl}-1-(cyclopropylmethyl)-1H-indol-7-yl)azetidin-1-yl]-4-oxobutanoic acid]: half-maximal inhibition under setting [1] (IC50) required 170 nM. Under setting [1], `COc1cc(C(=O)N2C[C@H]3CC[C@@H]2[C@@H]3N)cc2nc(-c3cc4cccc(C5CC(C(=O)O)C5)c4n3CC3CC3)n(C)c12` (single isomer, unassigned) [Example 55] came in with an IC50 of 122 nM. The compound `COc1cc(C(=O)N2C[C@H]3CC[C@@H]2[C@@H]3N)cc2nc(-c3cc4cccc(-c5ccc(C(N)=O)c(Cl)c5)c4n3CC3CC3)n(C)c12` [Example 104, 4-(2-{5-[(1R,4R,7R)-7-amino-2-azabicyclo[2.2.1]heptane-2-carbonyl]-7-methoxy-1-methyl-1H-1,3-benzodiazol-2-yl}-1-(cyclopropylmethyl)-1H-indol-7-yl)-2-chlorobenzamide] registered an IC50 under setting [1] of 93 nM. On the same count and under the same terms, under `COc1cc(C(=O)N2CC3CCC2[C@@H]3N)cc2nc(-c3cc4cccc(-c5ccco5)c4n3CC3CC3)n(C)c12` (stereo partly drawn) [Example 130, ((7R)-7-amino-2-azabicyclo[2.2.1]heptan-2-yl)(2-(1-(cyclopropylmethyl)-7-(furan-2-yl)-1H-indol-2-yl)-7-methoxy-1-methyl-1H-benzo[d]imidazol-5-yl)methanone] stands 178 nM. Still for that read-out and setting: under `COc1cc(C(=O)N2C[C@H]3CC[C@@H]2[C@@H]3N)cc2nc(-c3cc4cccc(C5CN(C(=O)Cc6nnn[nH]6)C5)c4n3CC3CC3)n(C)c12` [Example 81, 1-[3-(2-{5-[(1R,4R,7R)-7-amino-2-azabicyclo[2.2.1]heptane-2-carbonyl]-7-methoxy-1-methyl-1H-1,3-benzodiazol-2-yl}-1-(cyclopropylmethyl)-1H-indol-7-yl)azetidin-1-yl]-2-(1H-1,2,3,4-tetrazol-5-yl)ethan-1-one] stands 16 nM. `COc1cc(C(=O)N2C[C@H]3CC[C@@H]2[C@@H]3N)cc2nc(-c3cc4cccc(C5CCN(C(=O)Nc6cccc(F)c6)CC5)c4n3CC3CC3)n(C)c12` [Example 242, 4-(2-(5-((1R,4R,7R)-7-amino-2-azabicyclo[2.2.1]heptane-2-carbonyl)-7-methoxy-1-methyl-1H-benzo[d]imidazol-2-yl)-1-(cyclopropylmethyl)-1H-indol-7-yl)-N-(3-fluorophenyl)piperidine-1-carboxamide]: under setting [1], half-maximal inhibition (IC50) required 30 nM. Under setting [1], `COc1cc2c(cc1-c1cccc3cc(-c4nc5cc(C(=O)N6C[C@H]7CC[C@@H]6[C@@H]7N)cc(OC)c5n4C)n(CC4CC4)c13)CCC(=O)N2` [Example 204, 6-(2-(5-((1R,4R,7R)-7-amino-2-azabicyclo[2.2.1]heptane-2-carbonyl)-7-methoxy-1-methyl-1H-benzo[d]imidazol-2-yl)-1-(cyclopropylmethyl)-1H-indol-7-yl)-7-methoxy-3,4-dihydroquinolin-2(1H)-one] came in with an IC50 of 139 nM. Still for that read-out and setting: for `COc1cc(C(=O)N2C[C@H]3CC[C@@H]2[C@@H]3N)cc2nc(-c3cc4cccc(NC5CCN(C)CC5)c4n3CC3CC3)n(C)c12` [Example 170, ((1R,4R,7R)-7-amino-2-azabicyclo[2.2.1]heptan-2-yl)(2-(1-(cyclopropylmethyl)-7-((1-methylpiperidin-4-yl)amino)-1H-indol-2-yl)-7-methoxy-1-methyl-1H-benzo[d]imidazol-5-yl)methanone] the value was 59 nM; for `COC(=O)N1CC(c2cccc3cc(-c4nc5cc(C(=O)N6C[C@H]7CC[C@@H]6[C@@H]7N)cc(OC)c5n4Cc4cnn(C)c4)n(CC4CC4)c23)C1` [Example 213, methyl 3-(2-(5-((1R,4R,7R)-7-amino-2-azabicyclo[2.2.1]heptane-2-carbonyl)-7-methoxy-1-((1-methyl-1H-pyrazol-4-yl)methyl)-1H-benzo[d]imidazol-2-yl)-1-(cyclopropylmethyl)-1H-indol-7-yl)azetidine-1-carboxylate], 21 nM. On the same count and under the same terms, for `COc1cc(C(=O)N2C[C@H](N)C[C@@H](F)C2)cc2nc(-c3cc4cccc(C5CC(C(=O)N6CCCC6)C5)c4n3CC3CC3)n(C)c12` (single isomer, unassigned) [Example 116] the value was 95 nM; for `COc1cc(C(=O)N2C[C@H]3CC[C@@H]2[C@@H]3N)cc2nc(-c3cc4cccc(CCC(C)(C)O)c4n3CC3CC3)n(C)c12` [Example 21, 4-(2-{5-[(1R,4R,7R)-7-amino-2-azabicyclo[2.2.1]heptane-2-carbonyl]-7-methoxy-1-methyl-1H-1,3-benzodiazol-2-yl}-1-(cyclopropylmethyl)-1H-indol-7-yl)-2-methylbutan-2-ol], 86 nM; for `COc1cc(C(=O)N2C[C@H]3CC[C@@H]2[C@@H]3N)cc2nc(-c3cc4cccc(C5CN(C(N)=O)C5)c4n3CC3CC3)n(C)c12` [Example 66, 3-(2-{5-[(1R,4R,7R)-7-amino-2-azabicyclo[2.2.1]heptane-2-carbonyl]-7-methoxy-1-methyl-1H-1,3-benzodiazol-2-yl}-1-(cyclopropylmethyl)-1H-indol-7-yl)azetidine-1-carboxamide], 30 nM.
